Assay results published in patent publication US20240270762A1, “PENICILLIN-BINDING PROTEIN INHIBITORS” (priority 2021, published 2024).
In brackets after ≈: the same amount, converted by molar mass.

Tests used:
[1] = system: P. aeruginosa (ΔmexAB-oprM); assay: Broth microdilution MIC in CAMHB; type: cell-based; conditions: Pseudomonas aeruginosa; read-out: MIC P. aeruginosa ΔmexAB-oprM
P. aeruginosa ATCC 35151 = assay: microbe, parasite or virus in culture; type: cell-based; conditions: Pseudomonas aeruginosa, ATCC35151, read-out: MIC P. aeruginosa ATCC 35151
K. pneumoniae SI-117 = assay: microbe, parasite or virus in culture; type: cell-based; conditions: Klebsiella pneumoniae, SI117, read-out: MIC K. pneumoniae SI-117
K. pneumoniae 848844 = assay: microbe, parasite or virus in culture; type: cell-based; conditions: Klebsiella pneumoniae, 848844, read-out: MIC K. pneumoniae 848844
N. gonorrhoeae WHO X = assay: Liquid broth MIC in Fastidious broth; conditions: Neisseria gonorrhoeae, read-out: Minimum Inhibitory Concentration (MIC), N. gonorrhoeae WHO X
N. gonorrhoeae WHO Q = assay: Liquid broth MIC in Fastidious broth; conditions: Neisseria gonorrhoeae, read-out: Minimum Inhibitory Concentration (MIC), N. gonorrhoeae WHO Q
N. gonorrhoeae WHO Z = assay: Liquid broth MIC in Fastidious broth; conditions: Neisseria gonorrhoeae, read-out: Minimum Inhibitory Concentration (MIC), N. gonorrhoeae WHO Z
N. gonorrhoeae FA1090 = assay: Liquid broth MIC in Fastidious broth; conditions: Neisseria gonorrhoeae, FA1090, read-out: Minimum Inhibitory Concentration (MIC), N. gonorrhoeae FA 1090
Protocol: Additional antibacterial testing of the series was performed in 8 reference strains of N. gonorrhoeae (ATCC 49226, FA1090, MS 11, WHO G, WHO L, WHO M, WHO K, WHO X, WHO Z, WHO Q, CDC-0197). ATCC 49226, FA1090, MS11, WHO G, WHO L, and WHO M produce wild type or wild-type like PBP2. WHO K, WHO X, WHO Z, WHO Q, and CDC-0197 produce mosaic PBP2. Liquid broth-based assays were used for antibacterial testing of PBP inhibitors in Neisseria gonorrhoeae. Briefly, cryo-preserved bacterial cultures of clinical strains were streaked for isolation on Chocolate Agar (72 g/L (2×) GC Agar Base (BD #228950) and 2% (2×) Hemoglobin was autoclaved at 121° C. for 20 minutes to sterilize. Once cooled to ˜50° C. the 2×GC Agar Base and 2× Hemoglobin solutions are combined and 1% IsoVitaleX Enrichment (BD #211876) was added to the solution). Strains were incubated at 36° C. and 5% CO2 to allow growth of colonies, 24 hours before inoculum preparation. 2-fold serial dilutions of test compounds were conducted in a 96 well plate with a final volume of 75 μL per well at 2-fold the final desired concentration in Fastidious broth (Remel #R07664). For preparation of assay inoculum, a direct suspension was prepared by aseptically swabbing 10-15 colonies from agar plates into culture tubes containing 2 mL of fresh sterile saline. After the dilution plates were set up, direct suspensions were then diluted in a cuvette containing sterile saline and the optical density was measured at 600 nm. Inocula were diluted such that 75 μL of this culture in Fastidious broth results in a starting bacterial concentration of 5×10^5 CFU/mL when added to the dilution plates. The plates were incubated for ˜24 hours at 36° C. and 5% CO2.

A. baumannii ATCC 19606 = assay: microbe, parasite or virus in culture; type: cell-based; conditions: Acinetobacter baumannii, ATCC19606, read-out: MIC, A. baumannii ATCC 19606
E. coli AG100A = assay: Broth microdilution MIC in CAMHB; type: cell-based; conditions: Escherichia coli, read-out: MIC E. coli AG100A
E. coli AG100 = assay: microbe, parasite or virus in culture; type: cell-based; conditions: Escherichia coli, AG100, read-out: MIC E. coli AG100
N. gonorrhoeae WHO L = assay: Liquid broth MIC in Fastidious broth; conditions: Neisseria gonorrhoeae, read-out: Minimum Inhibitory Concentration (MIC), N. gonorrhoeae WHO L
N. gonorrhoeae WHO M = assay: Liquid broth MIC in Fastidious broth; conditions: Neisseria gonorrhoeae, read-out: Minimum Inhibitory Concentration (MIC), N. gonorrhoeae WHO M
E. coli 901C = assay: microbe, parasite or virus in culture; type: cell-based; conditions: Escherichia coli, read-out: MIC E. coli 901C
[2] = target: T1, PBP3 from Pseudomonas aeruginosa (PAO1) (Pseudomonas aeruginosa, UniProt G3XD46); assay: Bocillin-FL fluorescence polarization competition binding, P. aeruginosa PBP3; conditions: Binding affinity to P. aeruginosa PBP3; fluorescence polarization competition binding assay using Bocillin-FL; read-out: P. aeruginosa PBP3 Potency
T1 construct: made in house
T1 sequence (G3XD46 whole entry): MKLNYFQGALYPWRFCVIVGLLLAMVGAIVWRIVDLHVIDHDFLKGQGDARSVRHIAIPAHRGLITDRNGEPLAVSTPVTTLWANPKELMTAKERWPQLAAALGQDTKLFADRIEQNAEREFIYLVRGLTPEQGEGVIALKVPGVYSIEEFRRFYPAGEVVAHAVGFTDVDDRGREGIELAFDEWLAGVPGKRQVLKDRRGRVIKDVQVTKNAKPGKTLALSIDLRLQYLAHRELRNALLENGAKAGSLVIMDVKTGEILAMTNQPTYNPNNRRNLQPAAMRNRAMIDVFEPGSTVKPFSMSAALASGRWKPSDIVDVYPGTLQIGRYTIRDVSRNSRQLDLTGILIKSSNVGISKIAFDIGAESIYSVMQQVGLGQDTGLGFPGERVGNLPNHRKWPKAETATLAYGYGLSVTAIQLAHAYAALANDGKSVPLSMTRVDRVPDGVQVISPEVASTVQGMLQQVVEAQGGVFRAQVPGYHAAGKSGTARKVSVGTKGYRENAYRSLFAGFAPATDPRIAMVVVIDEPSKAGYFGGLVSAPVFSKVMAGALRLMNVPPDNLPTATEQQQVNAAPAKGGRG
In short: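 Purified PBP was preincubated with inhibitor (E. coli PBP3 1.5 μM, 30 min; P. aeruginosa PBP3 0.75 μM, A. baumannii PBP3 0.2 μM and PBP1a 1 μM, 15 min), then Bocillin-FL (0.1 μM; 0.05 μM for PBP1a) added and FP read up to 60 min. EC50 = 50% loss of bound probe.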

[3] = system: N. gonorrhoeae ATCC 49226; assay: Liquid broth MIC in Fastidious broth; conditions: Neisseria gonorrhoeae, ATCC49226, read-out: Minimum Inhibitory Concentration (MIC), N. gonorrhoeae ATCC 49226

Row | SMILES | MIC [1] | MIC (P. aeruginosa ATCC 35151) | MIC (K. pneumoniae SI-117) | MIC (K. pneumoniae 848844) | MIC (N. gonorrhoeae WHO X) | MIC (N. gonorrhoeae WHO Q) | MIC (N. gonorrhoeae WHO Z) | MIC (N. gonorrhoeae FA1090) | MIC (A. baumannii ATCC 19606) | MIC (E. coli AG100A) | MIC (E. coli AG100) | MIC (N. gonorrhoeae WHO L) | MIC (N. gonorrhoeae WHO M) | MIC (E. coli 901C) | IC50 [2] | MIC [3]
1 | NS(=O)(=O)NC(C(=O)N[C@H]1Cc2cccc(C(=O)O)c2OB1O)c1ccc(P(=O)(O)O)cc1 (stereo partly drawn) [Example 58, (3R)-2-hydroxy-3-(2-(4-phosphonophenyl)-2-(sulfamoylamino)acetamido)-3,4-dihydro-2H-benzo[e][1,2]oxaborinine-8-carboxylic acid] | > 128 µg/mL | > 128 µg/mL | > 128 µg/mL | > 128 µg/mL | 16 to 32 µg/mL (≈ 32.1 to 64.1 µM) | 16 to 32 µg/mL (≈ 32.1 to 64.1 µM) | 16 to 32 µg/mL (≈ 32.1 to 64.1 µM) | 16 to 32 µg/mL (≈ 32.1 to 64.1 µM) | > 128 µg/mL | > 128 µg/mL | > 128 µg/mL | 16 to 32 µg/mL (≈ 32.1 to 64.1 µM) | 16 to 32 µg/mL (≈ 32.1 to 64.1 µM) | > 128 µg/mL | > 250 µM | 16 to 32 µg/mL (≈ 32.1 to 64.1 µM)
2 | CS(=O)(=O)NC(C(=O)N[C@H]1Cc2cccc(C(=O)O)c2OB1O)c1ccc(P(=O)(O)O)cc1 (stereo partly drawn) [Example 59, (3R)-2-hydroxy-3-(2-(methylsulfonamido)-2-(4-phosphonophenyl)acetamido)-3,4-dihydro-2H-benzo[e][1,2]oxaborinine-8-carboxylic acid] | > 128 µg/mL | 32 to 64 µg/mL (≈ 64.2 to 128 µM) | > 128 µg/mL | > 128 µg/mL | 16 to 32 µg/mL (≈ 32.1 to 64.2 µM) | 16 to 32 µg/mL (≈ 32.1 to 64.2 µM) | 16 to 32 µg/mL (≈ 32.1 to 64.2 µM) | 16 to 32 µg/mL (≈ 32.1 to 64.2 µM) | > 128 µg/mL | > 128 µg/mL | > 128 µg/mL | 16 to 32 µg/mL (≈ 32.1 to 64.2 µM) | 4 to 8 µg/mL (≈ 8.03 to 16.1 µM) | 32 to 64 µg/mL (≈ 64.2 to 128 µM) | > 250 µM | 16 to 32 µg/mL (≈ 32.1 to 64.2 µM)
3 | CC(C)S(=O)(=O)NC(C(=O)N[C@H]1Cc2cccc(C(=O)O)c2OB1O)c1ccc(P(=O)(O)O)cc1 (stereo partly drawn) [Example 60, (3R)-2-hydroxy-3-(2-((1-methylethyl)sulfonamido)-2-(4-phosphonophenyl)acetamido)-3,4-dihydro-2H-benzo[e][1,2]oxaborinine-8-carboxylic acid] | > 128 µg/mL | 32 to 64 µg/mL (≈ 60.8 to 122 µM) | > 128 µg/mL | > 128 µg/mL | 16 to 32 µg/mL (≈ 30.4 to 60.8 µM) | 16 to 32 µg/mL (≈ 30.4 to 60.8 µM) | 16 to 32 µg/mL (≈ 30.4 to 60.8 µM) | 4 to 8 µg/mL (≈ 7.6 to 15.2 µM) | > 128 µg/mL | > 128 µg/mL | > 128 µg/mL | 16 to 32 µg/mL (≈ 30.4 to 60.8 µM) | 4 to 8 µg/mL (≈ 7.6 to 15.2 µM) | 32 to 64 µg/mL (≈ 60.8 to 122 µM) | 50 to 250 µM | 16 to 32 µg/mL (≈ 30.4 to 60.8 µM)
4 | O=C(O)c1cccc2c1OB(O)[C@@H](NC(=O)C(NS(=O)(=O)C1CC1)c1ccc(P(=O)(O)O)cc1)C2 (stereo partly drawn) [Example 61, (3R)-3-(2-(cyclopropanesulfonamido)-2-(4-phosphonophenyl)acetamido)-2-hydroxy-3,4-dihydro-2H-benzo[e][1,2]oxaborinine-8-carboxylic acid] | > 128 µg/mL | 32 to 64 µg/mL (≈ 61 to 122 µM) | > 128 µg/mL | > 128 µg/mL | 16 to 32 µg/mL (≈ 30.5 to 61 µM) | 16 to 32 µg/mL (≈ 30.5 to 61 µM) | 16 to 32 µg/mL (≈ 30.5 to 61 µM) | 16 to 32 µg/mL (≈ 30.5 to 61 µM) | > 128 µg/mL | > 128 µg/mL | > 128 µg/mL | 16 to 32 µg/mL (≈ 30.5 to 61 µM) | 16 to 32 µg/mL (≈ 30.5 to 61 µM) | 32 to 64 µg/mL (≈ 61 to 122 µM) | 10 to 50 µM | 16 to 32 µg/mL (≈ 30.5 to 61 µM)
5 | O=C1CC[C@@H](C(=O)NC(C(=O)N[C@H]2Cc3cccc(C(=O)O)c3OB2O)c2ccc(P(=O)(O)O)cc2)N1 (stereo partly drawn) [Example 64, (3R)-2-hydroxy-3-(2-((S)-5-oxopyrrolidine-2-carboxamido)-2-(4-phosphonophenyl)acetamido)-3,4-dihydro-2H-benzo[e][1,2]oxaborinine-8-carboxylic acid] | > 128 µg/mL | 8 to 16 µg/mL (≈ 15.1 to 30.1 µM) | > 128 µg/mL | > 128 µg/mL | 16 to 32 µg/mL (≈ 30.1 to 60.2 µM) | 16 to 32 µg/mL (≈ 30.1 to 60.2 µM) | 4 to 8 µg/mL (≈ 7.53 to 15.1 µM) | 4 to 8 µg/mL (≈ 7.53 to 15.1 µM) | > 128 µg/mL | > 128 µg/mL | > 128 µg/mL | 16 to 32 µg/mL (≈ 30.1 to 60.2 µM) | 1 to 2 µg/mL (≈ 1.88 to 3.76 µM) | 8 to 16 µg/mL (≈ 15.1 to 30.1 µM) | 50 to 250 µM | 4 to 8 µg/mL (≈ 7.53 to 15.1 µM)
